{"source": "paper PMC12610274", "about": "“Identification of Marrubiin as a Cathepsin C Inhibitor for Treating Rheumatoid Arthritis” (Molecules, 2025)", "key": {"PR3": {"system": "PR3", "test": "NSPs activity in U937 cells after 5 days of treatment, PR3", "type": "cell-based, human", "settings": "U937, 10 μM", "description": "U937 cells in the logarithmic growth phase were collected and equally divided into six portions. Four of these portions were treated with DMSO solutions of the test compound at varying concentrations to achieve final concentrations of 1.25, 2.5, 5, and 10 μM, respectively. An equal volume of DMSO was added to one portion as a blank control, while another portion treated with a DMSO solution of AZD7986 served as a positive control. The cells were cultured under standard U937 conditions for 5 consecutive days, with daily medium changes and fresh compound treatments administered using the same protocol. Following 5 days of treatment, cells were harvested, washed twice thoroughly with phosphate-buffered saline, and lysed in phosphate-buffered saline containing 1% Triton X-100. The lysates were centrifuged to collect the supernatant, and protein concentrations were determined as previously described to ensure equal total protein loading across all samples. The prepared samples were stored at −20 °C until further analysis. Different assay buffers were prepared for diluting samples and measuring the activities of specific NSPs: a buffer containing 50 mM Tris and 750 mM NaCl (pH 7.4) was used for NE and PR3; a buffer containing 50 mM Tris, 750 mM NaCl, 5 mM EDTA (pH 7.4) was used for Cat G; and a buffer containing 25 mM MES, 50 mM NaCl, 5 mM DTT (pH 6.0) was used for CTSC. […]"}, "CTSC": {"biological_target": "CTSC (Homo sapiens, UniProt P53634)", "sequence (P53634 25-463)": "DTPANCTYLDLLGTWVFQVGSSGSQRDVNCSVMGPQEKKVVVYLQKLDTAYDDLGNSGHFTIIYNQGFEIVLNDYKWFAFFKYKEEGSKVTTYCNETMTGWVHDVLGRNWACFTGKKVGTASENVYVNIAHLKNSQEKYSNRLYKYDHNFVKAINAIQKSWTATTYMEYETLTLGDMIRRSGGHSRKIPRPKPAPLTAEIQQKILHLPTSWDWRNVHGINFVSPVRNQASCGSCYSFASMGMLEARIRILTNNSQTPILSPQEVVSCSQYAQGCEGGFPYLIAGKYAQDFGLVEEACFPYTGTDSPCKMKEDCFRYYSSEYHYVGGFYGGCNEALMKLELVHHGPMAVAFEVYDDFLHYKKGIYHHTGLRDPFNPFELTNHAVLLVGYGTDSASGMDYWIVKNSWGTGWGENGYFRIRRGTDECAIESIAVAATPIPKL", "test": "Cellular thermal shift assay (CETSA) in U937 cells", "type": "binding", "set-up": "endogenous in cells; host or cells: U937", "settings": "DMSO control 49 °C", "description": "(§1) The Western blot experiments in this study were performed as described below. Cells in the logarithmic growth phase were collected in appropriate numbers according to different experimental purposes. After being thoroughly washed with phosphate-buffered saline and centrifuged, the cell pellets were resuspended in phosphate-buffered saline to obtain single-cell suspensions. Cells were fully lysed using RIPA buffer (Beyotime, P0013B) supplemented with EDTA-free protease and phosphatase inhibitor (Abcam, ab201120). Total cellular protein solutions were obtained after centrifugation to remove cell debris. The isolated proteins were quantified using the BeyoBCA protein assay kit (Beyotime, P0399M) following the operational protocol. The quantified protein samples were thoroughly mixed with protein loading buffer, boiled on a dry bath for 5 min, and then cooled to room temperature for Western blot analysis. […] Finally, enhanced chemiluminescent horseradish peroxidase substrate (Tanon Science & Technology Co., Ltd., Shanghai, China, 180-506) was used to visualize protein bands on a ChemiDoc XRS system (Bio-Rad Laboratories, Inc., Hercules, CA, USA), and the protein bands were quantified using Image Lab analysis software (Version 6.1) (Bio-Rad). […]"}, "NSPs": {"system": "NSPs", "test": "Stability (protein level) of NSPs in U937 cells, Western blot, NSPs together", "type": "cell-based, human", "settings": "U937, 10 μM, 24 h", "description": "as §1"}, "[1]": {"test": "Cytotoxicity assay, U937 cell line", "type": "cell-based", "settings": "human, U937 cells", "description": "RAW264.7 cells and U937 cells in the logarithmic growth phase were counted and diluted, and the concentrations of the single-cell suspensions of the two types of cells were adjusted to 5 × 10^4 cells/mL and 3 × 10^4 cells/mL, respectively. After thorough mixing, the cells were seeded into a 96-well plate, with 100 μL of cell suspension added to each well. Prepare the working solution of test compounds using the corresponding medium as the solvent, with the concentration of working solution being 2 times the final test concentration (2.5 μM, 5 μM, 10 μM, 20 μM, and 40 μM). Twenty-four hours after cell seeding, the compound working solutions were added to the compound test wells, and the same volume of medium was added to the negative control wells, followed by continuous incubation for another 24 h. Only the wells with the same volume but without cells served as the blank control group. The CellTiter-Lumi™ luminescent cell viability assay kit (Beyotime Biotechnology, Shanghai, China, C0065XL) was used to detect cell viability according to the standard operating procedures. Each group of tests was independently repeated at least 3 times, and IC50 values were calculated using SPSS 10.0."}}, "data": [{"compound": "C[C@@H]1C[C@H]2OC(=O)[C@@]3(C)CCC[C@@](C)([C@@H]23)[C@@]1(O)CCc1ccoc1", "note": "[Marrubiin, marrubiin]", "values": [{"measurement": "PR3 activity, % of DMSO group", "setting": "PR3", "result": 10.3, "unit": "%"}, {"measurement": "temperature at which significant CTSC degradation occurred", "setting": "CTSC; 10 μM", "result": "approximately 61 °C"}, {"measurement": "temperature at which significant CTSC degradation occurred", "setting": "CTSC; 20 μM", "result": "~67", "unit": "°C"}, {"measurement": "content of NSPs, % of the original level", "setting": "NSPs", "result": "75.4–87.8%"}, {"measurement": "IC50 at 24 h", "setting": "[1]", "result": "> 10", "unit": "µM"}]}]}
